From publication PMC10967822, “Antimicrobial Indole-3-Carboxamido-Polyamine Conjugates Target Bacterial Membranes and Are Antibiotic Potentiators” (Biomolecules, 2024)
≈ marks a conversion by molar mass, not a printed value.

Key:
E. coli ATCC 25922 [1] = test: MIC, broth dilution, E. coli; assay type: cell-based, Escherichia coli; conditions: Escherichia coli, ATCC25922; E. coli ATCC 25922, 18 h
MRSA ATCC 43300 = test: MIC, broth microdilution (CO-ADD), MRSA; assay type: cell-based, methicillin-resistant S. aureus; conditions: Staphylococcus aureus; MRSA ATCC 43300; top dose 32 µg/mL; read-out: MIC MRSA
P. aeruginosa ATCC 27853 [2] = test: Doxycycline potentiation against P. aeruginosa; assay type: cell-based, Pseudomonas aeruginosa; conditions: doxycycline at 2 µg/mL (4.5 µM); for Dox/Pa fold-change (intrinsic MIC / combination MIC): P. aeruginosa ATCC 27853; for Dox/Pa: concentration required to restore doxycycline activity (combination MIC): P. aeruginosa ATCC 27853, mean n = 3
Source text: (§1) These measurements were independently repeated in triplicate.

P. aeruginosa ATCC 27853 [3] = test: MIC, broth dilution, P. aeruginosa; assay type: cell-based, Pseudomonas aeruginosa; conditions: Pseudomonas aeruginosa, ATCC27853; P. aeruginosa ATCC 27853, 18 h; read-out: MIC Pa
human red blood cells = test: Hemolytic assay; assay type: cell-based; conditions: 10% hemolytic activity, mean n = 2
Procedure: Human whole blood was washed three times with three volumes of 0.9% NaCl and then resuspended in the same solution to a concentration of 0.5 × 10^8 cells/mL, as determined by the manual cell count in a Neubauer hemocytometer. The washed cells were then added to the 384-well compound-containing plates for a final volume of 50 μL. After a 10 min shake on a plate shaker, the plates were then incubated for 1 h at 37 °C. After incubation, the plates were centrifuged at 1000× g for 10 min to pellet cells and debris; 25 μL of the supernatant was then transferred to a polystyrene 384-well assay plate. Hemolysis was determined by measuring the supernatant absorbance at […] (OD405). The absorbance was measured using a Tecan M1000 Pro monochromator plate reader. HC10 and HC50 (concentrations at 10% and 50% hemolysis, respectively) were calculated by a curve fitting the inhibition values vs. log (concentration) using a sigmoidal dose–response function with variable fitting values for the top, bottom, and slope.

S. aureus ATCC 25923 = test: MIC, broth dilution, S. aureus; assay type: cell-based, Staphylococcus aureus; conditions: Staphylococcus aureus, ATCC25923; S. aureus ATCC 25923, 18 h; read-out: MIC Sa
[4] = Cytotoxicity assay (resazurin); assay type: cell-based; conditions: human, HEK293 cells, mean n = 2
[5] = system: C. neoformans ATCC 208821; test: Antifungal MIC (CO-ADD), C. neoformans; assay type: cell-based; conditions: Cryptococcus neoformans, ATCC208821, top dose 32 µg/mL
Procedure: (§2) For the antifungal assay, fungi strains were cultured for 3 days on YPD agar at 30 °C. A yeast suspension of 1 × 10^6 to 5 × 10^6 CFU/mL was prepared from five colonies. These stock suspensions were diluted with a yeast nitrogen base (YNB) (Becton Dickinson, 233520, New South Wales, Australia) broth to a final concentration of 2.5 × 10^3 CFU/mL. […] The plates were covered and incubated at 35 °C for 36 h without shaking. C. albicans MICs were determined by measuring the absorbance at OD530. For C. neoformans, resazurin was added at a 0.006% final concentration to each well and incubated for a further 3 h before the MICs were determined by measuring the absorbance at OD570–600. […] Fluconazole was used as a positive fungal inhibitor standard for C. albicans and C. neoformans. […] The quality control (QC) of the assays was determined by the antimicrobial controls and the Z′-factor (using positive and negative controls).

C. albicans ATCC 90028 = test: Antifungal MIC (CO-ADD), C. albicans; assay type: cell-based; conditions: Candida albicans, ATCC90028, top dose 32 µg/mL
Procedure: as §2

[6] = system: K. pneumoniae ATCC 700603; test: MIC, broth microdilution (CO-ADD), K. pneumoniae; conditions: top dose 32 µg/mL
A. baumannii ATCC 19606 = test: MIC, broth microdilution (CO-ADD), A. baumannii; assay type: cell-based, Acinetobacter baumannii; conditions: Acinetobacter baumannii, ATCC19606, top dose 32 µg/mL
E. coli ATCC 25922 [7] = test: Erythromycin potentiation against E. coli; assay type: cell-based, Escherichia coli; conditions: erythromycin at 2 µg/mL (2.7 µM); for Erythro/Ec fold-change (intrinsic MIC / combination MIC): E. coli; for Erythro/Ec: concentration required to restore erythromycin activity (combination MIC): mean n = 3
Source text: as §1

| SMILES | MIC (E. coli ATCC 25922 [1]) [µM] | MIC (MRSA ATCC 43300) [µM] | Dox/Pa fold-change (intrinsic MIC / combination MIC) (P. aeruginosa ATCC 27853 [2]) [fold] | Dox/Pa: concentration required to restore doxycycline activity (combination MIC) (P. aeruginosa ATCC 27853 [2]) [µM] | MIC (P. aeruginosa ATCC 27853 [3]) [µM] | Hemolysis HC10 (human red blood cells) [µM] | MIC (S. aureus ATCC 25923) [µM] | IC50 at 20 h [4] [µM] | MIC [5] [µM] | MIC (C. albicans ATCC 90028) [µM] | MIC Kp [6] [µM] | MIC (A. baumannii ATCC 19606) [µM] | Erythro/Ec fold-change (intrinsic MIC / combination MIC) (E. coli ATCC 25922 [7]) [fold] | Erythro/Ec: concentration required to restore erythromycin activity (combination MIC) (E. coli ATCC 25922 [7]) [µM] |
| --- | --- | --- | --- | --- | --- | --- | --- | --- | --- | --- | --- | --- | --- | --- |
| COc1cccc2c(C(=O)NCCCNCCCCCCCCCCCCNCCCNC(=O)c3c[nH]c4c(OC)cccc34)c[nH]c12.O=C(O)C(F)(F)F.O=C(O)C(F)(F)F [Compound 17f] | 28.1 | ≤ 0.28 | 4 | 56.2 | 225 | >36 | 7.03 | > 36 | ≤ 0.28 | 4.5 | >36 | > 36 | 0.5 | 56.2 |
| O=C(NCCCNCCCCCCCNCCCNC(=O)c1c[nH]c2c(F)cccc12)c1c[nH]c2c(F)cccc12 [Compound 16c] | > 251 | ≤ 0.31 | > 4 | 62.9 | 251 (≈ 142 µg/mL) | >40 | > 251 | > 40 | ≤ 0.31 | > 40 | >40 | > 40 | 1 | 252 |
| O=C(NCCCNCCCCCCCCCCCCNCCCNC(=O)c1c[nH]c2ccc(Br)cc12)c1c[nH]c2ccc(Br)cc12.O=C(O)C(F)(F)F.O=C(O)C(F)(F)F [Compound 13f] | > 203 | ≤ 0.25 | 4 | 50.7 | 203 | 14.2 | 3.17 | ≤ 0.25 | ≤ 0.25 | ≤ 0.25 | ≤0.25 | 2.03 | > 8 | 25.3 |
| Cc1ccc2[nH]cc(C(=O)NCCCNCCCCCCNCCCNC(=O)c3c[nH]c4ccc(C)cc34)c2c1 [Compound 15b] | 129 (≈ 70.3 µg/mL) | 5.18 (≈ 2.82 µg/mL) | > 8 | 32.4 | > 259 | >41 | 259 (≈ 141 µg/mL) | > 41 | ≤ 0.32 | > 41 | >41 | > 41 | 4 | 32.4 |
| O=C(NCCCNCCCCCCCNCCCNC(=O)c1c[nH]c2ccc(Br)cc12)c1c[nH]c2ccc(Br)cc12 [Compound 13c] | 110 (≈ 75.7 µg/mL) | ≤ 0.27 | 16 | 13.6 | 220 (≈ 151 µg/mL) | >35 | 13.6 (≈ 9.36 µg/mL) | > 35 | ≤ 0.27 | 35 (≈ 24.1 µg/mL) | >35 | > 35 | 16 | 6.82 |
| O=C(NCCCNCCCCCCNCCCNC(=O)c1c[nH]c2ccccc12)c1c[nH]c2ccccc12.O=C(O)C(F)(F)F.O=C(O)C(F)(F)F [Compound 12b] | 134 | ≤ 0.34 | > 8 | 33.6 | > 268 | >43 | 268 | > 43 | ≤ 0.34 | > 43 | >43 | > 43 | 4 | 33.6 |
| Cc1cccc2c(C(=O)NCCCNCCCCCCCCCCNCCCNC(=O)c3c[nH]c4c(C)cccc34)c[nH]c12 [Compound 18e] | 30.2 (≈ 18.1 µg/mL) | ≤ 0.3 | 4 | 15.1 | 60.3 (≈ 36.2 µg/mL) | >39 | 30.2 (≈ 18.1 µg/mL) | > 39 | ≤ 0.3 | 4.83 (≈ 2.9 µg/mL) | >39 | > 39 | 2 | 15.1 |
| COc1ccc2[nH]cc(C(=O)NCCCNCCCCCCCCCCNCCCNC(=O)c3c[nH]c4ccc(OC)cc34)c2c1.O=C(O)C(F)(F)F.O=C(O)C(F)(F)F [Compound 14e] | 58.1 | ≤ 0.29 | 8 | 29.0 | 232 | >37 | 29 | > 37 | ≤ 0.29 | > 37 | >37 | > 37 | 0.5 | 116 |
| O=C(NCCCNCCCCCCCCNCCCNC(=O)c1c[nH]c2c(F)cccc12)c1c[nH]c2c(F)cccc12 [Compound 16d] | 247 (≈ 143 µg/mL) | 9.89 (≈ 5.74 µg/mL) | > 8 | 30.9 | 247 (≈ 143 µg/mL) | >40 | 247 (≈ 143 µg/mL) | > 40 | ≤ 0.31 | > 40 | >40 | > 40 | 1 | 247 |
| O=C(NCCCNCCCCCCCCCCCCNCCCNC(=O)c1c[nH]c2c(F)cccc12)c1c[nH]c2c(F)cccc12.O=C(O)C(F)(F)F.O=C(O)C(F)(F)F [Compound 16f] | 231 | ≤ 0.29 | 1 | 116 | 116 | >37 | 231 | > 37 | ≤ 0.29 | > 37 | >37 | > 37 | 1 | 231 |
| O=C(NCCCNCCCCCCCCCCNCCCNC(=O)c1c[nH]c2ccc(Br)cc12)c1c[nH]c2ccc(Br)cc12 [Compound 13e] | 52.2 (≈ 38.1 µg/mL) | ≤ 0.26 | 4 | 26.1 | 104 (≈ 76 µg/mL) | >33 | 3.26 (≈ 2.38 µg/mL) | > 33 | ≤ 0.26 | 4.17 (≈ 3.05 µg/mL) | >34 | 16.7 (≈ 12.2 µg/mL) | 8 | 6.52 |
